Consider 3 compounds from patent publication US11723359B2, “Disposable antimicrobial wipes and methods of making” (Ecolab USA Inc., priority 2015, dated 2023).

A short description of series [1]: pH of citric acid and acetic acid at varying concentrations. The series is classed as physicochemical. Here is the method:
Wipes were prepared as described in Example 1 above. Citric acid at concentrations of Oppm, 500 ppm, 1000 ppm, 2000 and 4000 ppm were separately applied to the Tencel® substrates along with Bardac 205 quaternary ammonium. The wipes were prepared in duplicate. The organic acid and quaternary ammonium chemicals were added to the textile simultaneously. The following is a table showing the pH of citric acid and acetic acid at varying concentrations: […]

Series [2] can be described thus: Squeeze method: expression of quaternary ammonium from treated Tencel wipes, quantified by HPLC. The series is classed as physicochemical. The note with it: Example 3, FIG. 4, citric acid 0, 500, 1000, 2000, 4000 ppm with Bardac 205 on Tencel, 24 hours soak. As for the experimental part:
Wipes were prepared as described in Example 1 above. […] The wipes were prepared in duplicate. The organic acid and quaternary ammonium chemicals were added to the textile simultaneously.

In the case of `CC(=O)O` [Acetic Acid, acetic acid], the pH in series [1] (concentration 10 ppm) is listed as 2.69; in series [1] (concentration 50 ppm) it was 2.62; in series [1] (concentration 500 ppm), 2.56.
As to `O=C(O)CC(O)(CC(=O)O)C(=O)O` [Citric Acid, citric acid], the figures for the pH in series [1] (concentration 10 ppm), in series [1] (concentration 50 ppm) and in series [1] (concentration 500 ppm) were 2.48, 2.58 and 2.65, respectively.
For the compound alkyl dimethyl benzyl ammonium chloride, the “release of dimethyl benzyl ammonium chloride from wipe” value in series [2] is given as “As the citric acid concentration increased, the amount of quaternary ammonium released also increased”.
